Earlier results on 5 compounds are cited in patent US6562605B1, “Extraction of water soluble biomaterials from fluids using a carbon dioxide/surfactant mixture” (Genencor International, Inc., priority 1995, dated 2003).

[1] abbreviates: to 388 bar, 50° C. printed at first prior art line.

Where two headings read alike, the source gives them in different places.

For `CCCCCCS(=O)(=O)[O-].[Na+]` [Alkyl sulfonate (C6, sodium salt, Fluka)], under setting [1], the “Solubility in carbon dioxide” value is “insoluble to 388 bar (50° C.)”.
On to `CCCCCCCCS(=O)(=O)[O-].[Na+]` [Alkyl sulfonate (Niacet, NAS 08)], for which, for the setting “to 585 bar”, the “Solubility in carbon dioxide” value is “insoluble to 585 bar”.
As for `CCCCCCCCCCCCCC[N+](C)(C)C.[Br-]` [Tetradecyl trimethyl ammonium bromide], under setting [1], the “Solubility in carbon dioxide” value was “insoluble to 388 bar”.
As to “Sorbitan monostearate [Sorbitan monostearate (Fluka, Span 60)]”, for the setting “at 377 bar”, the “Solubility in carbon dioxide” value was “slightly soluble at 377 bar”.
“Sorbitan trioleate [Sorbitan trioleate (Fluka, Span 80)]”: the “Solubility in carbon dioxide” value (at 377 bar) is on record as “slightly soluble at 377 bar”.
